In paper PMC6333442, “Conserved allosteric pathways for activation of TRPV3 revealed through engineering vanilloid-sensitivity” (eLife, 2019):

Legend:
[1] = tested on: TRPV3-6M/V2P (pore domain of rat TRPV2 in TRPV3-6M); test: Two-electrode voltage clamp, TRPV3-6M/V2P chimera in oocytes; assay type: cell-based, mouse; conditions: RTx 100 nM
Procedure: All channel constructs were expressed in Xenopus laevis oocytes and studied using the two-electrode voltage clamp technique (TEVC) following 1–4 days of incubation after cRNA injection. The animal care and experimental procedures were performed in accordance with the Guide for the Care and Use of Laboratory Animals and were approved by the Animal Care and Use Committee of the National Institute of Neurological Disorders and Stroke (Animal protocol number 1253–17). Oocytes were removed surgically and incubated with agitation for 1 hr in a solution containing (in mM) 82.5 NaCl, 2.5 KCl, 1 MgCl2, 5 HEPES, pH 7.6 (with NaOH), and collagenase (2 mg/ml; Worthington Biochemical, Lakewood, NJ). Defolliculated oocytes were injected with cRNA for each of the constructs and incubated at 17°C in a solution containing (in mM) 96 NaCl, 2 KCl, 1 MgCl2, 1.8 CaCl2, 5 HEPES, pH 7.6 (with NaOH), and gentamicin (50 μg/ml, GIBCO-BRL, Gaithersburg, MD). Oocyte membrane voltage was controlled using an OC-725C oocyte clamp (Warner Instruments, Hamden, CT). Data were filtered at 1–3 kHz and digitized at 20 kHz using pClamp software (Molecular Devices, Sunnyvale, CA) and a Digidata 1440A digitizer (Axon Instruments). Microelectrode resistances were 0.1–1 MΩ when filled with 3 M KCl. For recording TRP channel currents, the external recording solution contained (in mM) 100 KCl, 10 HEPES, pH 7.6 (with KOH). […]
For temperature-activation experiments, calcium-activated chloride currents were minimized by using calcium-free solution containing 30 µM Caccinh-A01 and recording at negative membrane voltages. Heat stimuli were achieved by passing the external recording solution through glass capillary spirals immersed in a water bath maintained at about 70°C, and recordings were performed during constant perfusion with temperature measured using a thermistor (TA-29, Warner Instruments) located close to the cell. […] The mean I vs T relations were calculated by automatically binning each of the recordings in temperature intervals of 2°C, and averaging a single data point within each interval per cell. […]

TRPV3-6M + 5PM = target: T1, TRPV3-6M + 5PM (Mus musculus, UniProt Q8K424, A560T/A606V/F522S/F625L/F656I/F666Y/H523E/L557M/Q580E/V587L/W521Y); test: Two-electrode voltage clamp, TRPV3-6M + 5PM in oocytes; assay type: cell-based
T1 construct: expressed in transfected cells; host or cells: Xenopus laevis oocytes
T1 sequence (Q8K424 1-791 W521Y/F522S/H523E/L557M/A560T/Q580E/V587L/A606V/F625L/F656I/F666Y): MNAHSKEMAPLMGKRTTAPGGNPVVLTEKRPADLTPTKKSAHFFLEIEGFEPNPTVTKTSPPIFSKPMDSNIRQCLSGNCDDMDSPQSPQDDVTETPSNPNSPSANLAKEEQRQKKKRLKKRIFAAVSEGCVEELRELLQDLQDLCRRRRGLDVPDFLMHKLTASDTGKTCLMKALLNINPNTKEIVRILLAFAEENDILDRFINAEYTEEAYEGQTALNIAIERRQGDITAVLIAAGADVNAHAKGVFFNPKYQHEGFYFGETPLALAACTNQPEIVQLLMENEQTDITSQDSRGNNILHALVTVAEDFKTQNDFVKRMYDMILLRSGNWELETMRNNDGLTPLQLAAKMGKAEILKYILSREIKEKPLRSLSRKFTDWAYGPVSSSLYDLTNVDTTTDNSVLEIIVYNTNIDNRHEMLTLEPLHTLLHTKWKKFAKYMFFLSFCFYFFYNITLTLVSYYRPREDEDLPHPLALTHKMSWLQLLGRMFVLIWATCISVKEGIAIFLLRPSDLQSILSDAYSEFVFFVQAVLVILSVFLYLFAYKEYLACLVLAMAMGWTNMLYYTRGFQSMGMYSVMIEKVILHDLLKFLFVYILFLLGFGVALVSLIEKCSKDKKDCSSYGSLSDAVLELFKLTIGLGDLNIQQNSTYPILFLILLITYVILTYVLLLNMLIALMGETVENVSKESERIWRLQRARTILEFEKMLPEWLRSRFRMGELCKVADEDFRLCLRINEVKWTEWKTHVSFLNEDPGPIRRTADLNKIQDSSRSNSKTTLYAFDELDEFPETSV
Procedure: All channel constructs were expressed in Xenopus laevis oocytes and studied using the two-electrode voltage clamp technique (TEVC) following 1–4 days of incubation after cRNA injection. The animal care and experimental procedures were performed in accordance with the Guide for the Care and Use of Laboratory Animals and were approved by the Animal Care and Use Committee of the National Institute of Neurological Disorders and Stroke (Animal protocol number 1253–17). Oocytes were removed surgically and incubated with agitation for 1 hr in a solution containing (in mM) 82.5 NaCl, 2.5 KCl, 1 MgCl2, 5 HEPES, pH 7.6 (with NaOH), and collagenase (2 mg/ml; Worthington Biochemical, Lakewood, NJ). Defolliculated oocytes were injected with cRNA for each of the constructs and incubated at 17°C in a solution containing (in mM) 96 NaCl, 2 KCl, 1 MgCl2, 1.8 CaCl2, 5 HEPES, pH 7.6 (with NaOH), and gentamicin (50 μg/ml, GIBCO-BRL, Gaithersburg, MD). Oocyte membrane voltage was controlled using an OC-725C oocyte clamp (Warner Instruments, Hamden, CT). Data were filtered at 1–3 kHz and digitized at 20 kHz using pClamp software (Molecular Devices, Sunnyvale, CA) and a Digidata 1440A digitizer (Axon Instruments). Microelectrode resistances were 0.1–1 MΩ when filled with 3 M KCl. For recording TRP channel currents, the external recording solution contained (in mM) 100 KCl, 10 HEPES, pH 7.6 (with KOH). Experiments were performed at room temperature (~22°C), except as indicated otherwise. […] Current time courses were obtained by stepping membrane voltage every 2 s from a holding potential of 0 mV to either −60 or +60 mV for 100 ms, and plotting the mean steady-state current at the end of each voltage step as a function of total recording time. I-V relations were obtained similarly, but voltage was stepped every 2 s to a different value, in 10 mV increments and starting at −60 mV.

## C=C(C)[C@]12C[C@@H](C)[C@@]34O[C@](Cc5ccccc5)(O[C@@H]1[C@@H]3C=C(COC(=O)Cc1ccc(O)c(OC)c1)C[C@]1(O)C(=O)C(C)=C[C@@H]41)O2 [RTx, resiniferatoxin]
[1]; room temperature, ±60 mV
  channel activation (current response): robustly activated
[1]; temperature decreased to 10°C
  RTx activation on cooling: reduced to baseline levels
TRPV3-6M + 5PM
  dissociation of RTx: exceedingly slow
TRPV3-6M + 5PM; RTx 100 nM, 2-APB 3 mM, +60 mV
  response to RTx compared with maximal response to 2-APB: similar
